# Measurements reported in patent US20220249540A1, “INHALABLE COMPOSITION COMPROMISING CYCLODEXTRIN FOR USE IN THE TREATMENT OF NASAL INFLAMMATIONS” (AQUILON PHARMACEUTICALS SA, priority 2019, published 2022).
# Columns and labels:
# [1] = test system: goblet cells in nasal mucosa tissue; experiment: goblet cells in nasal mucosa tissue of Ovalbumin-sensitized mice (PAS staining); format: in vivo, BALB/c mice; details: 50 mM in PBS by aerosolization 360 min before each OVA inhalation, Day 22 to 98; control group 50%
# Description: Eight male and female BALB/c mice (6-8 weeks of age at the beginning of the protocol) were sensitized with Ovalbulmin (OVA) on D1 and D11 by intraperitoneal (i.p.) injection (10 μg grade V OVA diluted in 200 μl PBS), followed by OVA aerosols (10% grade Ill OVA dissolved in PBS buffer −50 ml were aerosolized with ultrasonic nebulizer during 30 minutes in a 30×20×15 cm Plexiglas exposure box where the animals were authorized to breathe and move normally). Aerosol administration was performed 360 min after i.n. treatments with Placebo or hydroxypropyl-gamma-cyclodextrin (HP-gamma-CD) during even weeks from days 22 to 98 (5 days/even week).
# Mice were treated from Day 22 to Day 98 (5 days per week even week) with PBS (8 mice in control group) or with hydroxypropyl-gamma-cyclodextrin 50 mM diluted in PBS (8 mice in treated group) by aeorosolization (50 ml were aerosolized during 30 minutes in a Plexiglas exposure box where the animals were authorized to breathe and move normally) 360 min before each OVA inhalation.
# On Day 99, the animals were sacrificed. […]
# Numbers of goblet cells were counted using digitalized images of histological slides. Three hundred epithelial cells were counted at random and the percentage of positive cells for PAS staining (Goblet cells) was established relative to cells negative for PAS staining.
# Wistar rats = experiment: two-week Dose-Range-Finding (DRF) Inhalation Study, histopathology of the nasal cavities; format: in vivo; details: for Normal (number of animals with normal nasal cavity histopathology): 3 examined
# Description: Hydroxypropylbetacyclodextrin (HPBCD) was administered during two-weeks in a Dose-Range-Finding (DRF) Inhalation Study to Wistar rats in three different delivered doses: • low of 20 mg/kg/day and a target atmosphere concentration of 0.3 mg/L, • medium of 60 mg/kg/day and a target atmosphere concentration of 0.9 mg/L, and • […] to each three male and three non-pregnant female rats.
# A control group which received control vehicle in the form of citrate buffer was provided with three male and three non-pregnant female rats. After terminal euthanasia, the nasal cavity was removed. Nasal cavities were embedded in paraffin wax, sections were cut at 4-6 μm by microtome and transferred to slides. Tissue sections were stained with haematoxylin-eosin/phloxine and examined by light microscope. Full histopathology of the nasal cavities, as well as the other organs of the respiratory tract, was performed in each group and is shown in FIG. 1. 4 levels of the nasal cavities were examined, among which 1 level included the nasopharyngeal duct and Nasal Associated Lymphoid Tissue (NALT).
# Nasal cavities analyzed by histopathology were normal at all exposure levels of HPBCD.
"Normal (number of animals with normal nasal cavity histopathology) (Wistar rats; Female, High dosage (180 mg/kg/day))","Normal (number of animals with normal nasal cavity histopathology) (Wistar rats; Female, Low dosage (20 mg/kg/day))","Normal (number of animals with normal nasal cavity histopathology) (Wistar rats; Female, Mid dosage (60 mg/kg/day))","Normal (number of animals with normal nasal cavity histopathology) (Wistar rats; Male, High dosage (180 mg/kg/day))","Normal (number of animals with normal nasal cavity histopathology) (Wistar rats; Male, Low dosage (20 mg/kg/day))","Normal (number of animals with normal nasal cavity histopathology) (Wistar rats; Male, Mid dosage (60 mg/kg/day))","Nasal cavities analyzed by histopathology (Wistar rats; all exposure levels (20, 60, 180 mg/kg/day), nose-only inhalation, 90 min/day, 14 days)",Molecule,% of goblet cells in nasal mucosa tissue [1]
–,–,–,–,–,–,–,2-hydroxypropyl-γ-cyclodextrin [Hydroxypropyl-gamma-cyclodextrin],20%
3,3,3,3,3,3,normal,"CC(O)COC[C@H]1O[C@@H]2O[C@H]3[C@H](O)[C@@H](O)[C@@H](O[C@H]4[C@H](O)[C@@H](O)[C@@H](O[C@H]5[C@H](O)[C@@H](O)[C@@H](O[C@H]6[C@H](O)[C@@H](O)[C@@H](O[C@H]7[C@H](O)[C@@H](O)[C@@H](O[C@H]8[C@H](O)[C@@H](O)[C@@H](O[C@H]1[C@H](O)[C@H]2O)O[C@@H]8COCC(C)O)O[C@@H]7COCC(C)O)O[C@@H]6COCC(C)O)O[C@@H]5COCC(C)O)O[C@@H]4COCC(C)O)O[C@@H]3COCC(C)O (stereo partly drawn) [HPBCD, 2-hydroxypropyl-beta-cyclodextrin]",–
